# Measured values: patent publication US9302999B2, “Substituted triazoles as herbicides” (E. I. DU PONT DE NEMOURS AND COMPANY, priority 2012, dated 2016)
# What was measured:
# Format in all cases: in vivo
# [1] = test system: barnyardgrass (Echinochloa crus-galli); experiment: Test A pre-/postemergence: barnyardgrass
# Procedure, shortened: (§1)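 Injury was scored visually on a 0 (no effect) to 100 (complete control) scale versus untreated controls roughly ten days after treatment in the greenhouse. Compounds, formulated in surfactant-containing non-phytotoxic solvent, went on as soil-directed preemergence spray or postemergence to one- to two-leaf plants 2–10 cm tall.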
# [2] = test system: crabgrass, large (large crabgrass, Digitaria sanguinalis); experiment: Test A pre-/postemergence: crabgrass, large
# Text: (§2) Seeds of barnyardgrass (Echinochloa crus-galli), crabgrass, large (large crabgrass, Digitaria sanguinalis), foxtail, giant (giant foxtail, Setaria faberii), morningglory (Ipomoea spp.), pigweed (Amaranthus retroflexus), velvetleaf (Abutilon theophrasti), wheat (Triticum aestivum), and corn (Zea mays) were planted into a blend of loam soil and sand and treated preemergence with a directed soil spray using test chemicals formulated in a non-phytotoxic solvent mixture which included a surfactant. At the same time these species were also treated with postemergence applications of test chemicals formulated in the same manner.
# (§3) Plants ranged in height from two to ten cm and were in the one- to two-leaf stage for the postemergence treatment. Treated plants and untreated controls were maintained in a greenhouse for approximately ten days, after which time all treated plants were compared to untreated controls and visually evaluated for injury. Plant response ratings, summarized in Table A, are based on a 0 to 100 scale where 0 is no effect and 100 is complete control. A dash (-) response means no test result.
# [3] = test system: foxtail, giant (giant foxtail, Setaria faberii); experiment: Test A pre-/postemergence: foxtail, giant
# Text: as §2, §3
# [4] = test system: morningglory (Ipomoea spp.); experiment: Test A pre-/postemergence: morningglory
# Procedure, shortened: as §1
# [5] = test system: pigweed (Amaranthus retroflexus); experiment: Test A pre-/postemergence: pigweed
# Text: as §2, §3
# [6] = test system: velvetleaf (Abutilon theophrasti); experiment: Test A pre-/postemergence: velvetleaf
# Text: as §2, §3
# [7] = test system: wheat (Triticum aestivum); experiment: Test A pre-/postemergence: wheat
# Text: as §2, §3
# [8] = test system: corn (Zea mays); experiment: Test A pre-/postemergence: corn
# Procedure, shortened: as §1
# [9] = test system: rice (Oryza sativa); experiment: Test C flooded paddy test: rice; settings: scale 0 to 100 (0 no effect, 100 complete control)
# Text: (§4) Plant species in the flooded paddy test consisted of rice (Oryza sativa), sedge, umbrella (small-flower umbrella sedge, Cyperus difformis), ducksalad (Heteranthera limosa) and barnyardgrass (Echinochloa crus-galli) grown to the 2-leaf stage for testing. At time of treatment, test pots were flooded to 3 cm above the soil surface, treated by application of test compounds directly to the paddy water, and then maintained at that water depth for the duration of the test.
# (§5) Treated plants and controls were maintained in a greenhouse for 13 to 15 days, after which time all species were compared to controls and visually evaluated. Plant response ratings, summarized in Table C, are based on a scale of 0 to 100 where 0 is no effect and 100 is complete control. A dash (-) response means no test result.
# [10] = test system: sedge, umbrella (small-flower umbrella sedge, Cyperus difformis); experiment: Test C flooded paddy test: sedge, umbrella; settings: scale 0 to 100 (0 no effect, 100 complete control)
# Text: as §4, §5
# [11] = test system: ducksalad (Heteranthera limosa); experiment: Test C flooded paddy test: ducksalad; settings: scale 0 to 100 (0 no effect, 100 complete control)
# Text: as §4, §5
# [12] = test system: barnyardgrass (Echinochloa crus-galli); experiment: Test C flooded paddy test: barnyardgrass; settings: scale 0 to 100 (0 no effect, 100 complete control)
# Text: as §4, §5
# [13] = Postemergence, 125 g ai/ha, 0 to 100 scale, 0 is no effect, 100 is complete control
# [14] = Postemergence, 500 g ai/ha, visual rating on 0 to 100 scale (0 no effect, 100 complete control), approximately ten days
# [15] = Preemergence, 125 g ai/ha, 0 to 100 scale (0 no effect, 100 complete control)
# [16] = Preemergence, 500 g ai/ha, 0 to 100 scale, 0 is no effect, 100 is complete control
# [17] = Flood (flooded paddy test), 62 g ai/ha, visual rating after 13 to 15 days
# [18] = Flood (flooded paddy test), 125 g ai/ha, visual rating after 13 to 15 days
# [19] = Flood (flooded paddy test), 250 g ai/ha, visual rating after 13 to 15 days
# [20] = Postemergence, 1000 g ai/ha, visual rating on 0 to 100 scale (0 no effect, 100 complete control), approximately ten days
# [21] = Preemergence, 1000 g ai/ha, 0 to 100 scale, 0 is no effect, 100 is complete control
structure (smiles),measurement,setting,value
Cc1nn(-c2ccc(Cl)nc2)nc1C(=O)c1cccc(C(F)(F)F)c1 [Compound 72],Barnyardgrass plant response rating,[1]; [13],0
same,Barnyardgrass plant response rating,[1]; [14],10
same,"Plant response rating, Barnyardgrass",[1]; [15],0
same,"Plant response rating, Barnyardgrass",[1]; [16],0
same,"Crabgrass, Large plant response rating",[2]; [13],0
same,"Crabgrass, Large plant response rating",[2]; [14],10
same,"Plant response rating, Crabgrass, Large",[2]; [15],0
same,"Plant response rating, Crabgrass, Large",[2]; [16],10
same,"Foxtail, Giant plant response rating",[3]; [13],0
same,"Foxtail, Giant plant response rating",[3]; [14],10
same,"Plant response rating, Foxtail, Giant",[3]; [15],0
same,"Plant response rating, Foxtail, Giant",[3]; [16],20
same,Morningglory plant response rating,[4]; [13],0
same,Morningglory plant response rating,[4]; [14],10
same,"Plant response rating, Morningglory",[4]; [15],0
same,"Plant response rating, Morningglory",[4]; [16],0
same,Pigweed plant response rating,[5]; [13],10
same,Pigweed plant response rating,[5]; [14],70
same,"Plant response rating, Pigweed",[5]; [15],0
same,"Plant response rating, Pigweed",[5]; [16],10
same,Velvetleaf plant response rating,[6]; [13],0
same,Velvetleaf plant response rating,[6]; [14],10
same,"Plant response rating, Velvetleaf",[6]; [15],0
same,"Plant response rating, Velvetleaf",[6]; [16],0
same,Wheat plant response rating,[7]; [13],0
same,Wheat plant response rating,[7]; [14],0
same,"Plant response rating, Wheat",[7]; [15],0
same,"Plant response rating, Wheat",[7]; [16],0
same,Corn plant response rating,[8]; [13],0
same,Corn plant response rating,[8]; [14],10
same,"Plant response rating, Corn",[8]; [15],0
same,"Plant response rating, Corn",[8]; [16],0
same,"Plant response rating, Rice",[9]; [17],0
same,"Plant response rating, Rice",[9]; [18],0
same,"Plant response rating, Rice",[9]; [19],0
same,"Plant response rating, Rice","[9]; Flood, 31 g ai/ha",0
same,"Plant response rating, Sedge, Umbrella",[10]; [17],0
same,"Plant response rating, Sedge, Umbrella",[10]; [18],0
same,"Plant response rating, Sedge, Umbrella",[10]; [19],0
same,"Plant response rating, Sedge, Umbrella","[10]; Flood, 31 g ai/ha",0
same,"Plant response rating, Ducksalad",[11]; [17],0
same,"Plant response rating, Ducksalad",[11]; [18],0
same,"Plant response rating, Ducksalad",[11]; [19],0
same,"Plant response rating, Ducksalad","[11]; Flood, 31 g ai/ha",0
same,"Plant response rating, Barnyardgrass",[12]; [17],0
same,"Plant response rating, Barnyardgrass",[12]; [18],0
same,"Plant response rating, Barnyardgrass",[12]; [19],0
same,"Plant response rating, Barnyardgrass","[12]; Flood, 31 g ai/ha",0
COc1cc(Cc2nn(-c3ccc(C(F)(F)F)cc3)nc2C)ccn1 [Compound 31],Barnyardgrass plant response rating,[1]; [13],10
same,Barnyardgrass plant response rating,[1]; [14],10
same,"Plant response rating, Barnyardgrass",[1]; [15],0
same,"Plant response rating, Barnyardgrass",[1]; [16],0
same,"Crabgrass, Large plant response rating",[2]; [13],10
same,"Crabgrass, Large plant response rating",[2]; [14],50
same,"Plant response rating, Crabgrass, Large",[2]; [15],0
same,"Plant response rating, Crabgrass, Large",[2]; [16],60
same,"Foxtail, Giant plant response rating",[3]; [13],10
same,"Foxtail, Giant plant response rating",[3]; [14],50
same,"Plant response rating, Foxtail, Giant",[3]; [15],30
same,"Plant response rating, Foxtail, Giant",[3]; [16],90
same,Morningglory plant response rating,[4]; [13],20
same,Morningglory plant response rating,[4]; [14],100
same,"Plant response rating, Morningglory",[4]; [15],0
same,"Plant response rating, Morningglory",[4]; [16],0
same,Pigweed plant response rating,[5]; [13],60
same,Pigweed plant response rating,[5]; [14],90
same,"Plant response rating, Pigweed",[5]; [15],0
same,"Plant response rating, Pigweed",[5]; [16],50
same,Velvetleaf plant response rating,[6]; [13],10
same,Velvetleaf plant response rating,[6]; [14],20
same,"Plant response rating, Velvetleaf",[6]; [15],0
same,"Plant response rating, Velvetleaf",[6]; [16],0
same,Wheat plant response rating,[7]; [13],0
same,Wheat plant response rating,[7]; [14],10
same,"Plant response rating, Wheat",[7]; [15],0
same,"Plant response rating, Wheat",[7]; [16],0
same,Corn plant response rating,[8]; [13],10
same,Corn plant response rating,[8]; [14],20
same,"Plant response rating, Corn",[8]; [15],0
same,"Plant response rating, Corn",[8]; [16],0
same,"Plant response rating, Rice",[9]; [17],0
same,"Plant response rating, Rice",[9]; [18],0
same,"Plant response rating, Rice",[9]; [19],0
same,"Plant response rating, Rice","[9]; Flood, 31 g ai/ha",0
same,"Plant response rating, Sedge, Umbrella",[10]; [17],0
same,"Plant response rating, Sedge, Umbrella",[10]; [18],0
same,"Plant response rating, Sedge, Umbrella",[10]; [19],0
same,"Plant response rating, Sedge, Umbrella","[10]; Flood, 31 g ai/ha",0
same,"Plant response rating, Ducksalad",[11]; [17],0
same,"Plant response rating, Ducksalad",[11]; [18],0
same,"Plant response rating, Ducksalad",[11]; [19],0
same,"Plant response rating, Ducksalad","[11]; Flood, 31 g ai/ha",0
same,"Plant response rating, Barnyardgrass",[12]; [17],0
same,"Plant response rating, Barnyardgrass",[12]; [18],0
same,"Plant response rating, Barnyardgrass",[12]; [19],0
same,"Plant response rating, Barnyardgrass","[12]; Flood, 31 g ai/ha",0
FC(F)(F)c1ccc(-n2nc(Br)c(Cc3cccc(C(F)(F)F)c3)n2)cc1 [Compound 123],Barnyardgrass plant response rating,[1]; [20],10
same,Barnyardgrass plant response rating,[1]; [21],10
same,"Crabgrass, Large plant response rating",[2]; [20],80
same,"Crabgrass, Large plant response rating",[2]; [21],60
same,"Foxtail, Giant plant response rating",[3]; [20],60
same,"Foxtail, Giant plant response rating",[3]; [21],80
same,Morningglory plant response rating,[4]; [20],100
same,Morningglory plant response rating,[4]; [21],0
same,Pigweed plant response rating,[5]; [20],100
same,Pigweed plant response rating,[5]; [21],80
same,Velvetleaf plant response rating,[6]; [20],100
same,Velvetleaf plant response rating,[6]; [21],10
same,Wheat plant response rating,[7]; [20],20
same,Wheat plant response rating,[7]; [21],0
same,Corn plant response rating,[8]; [20],40
same,Corn plant response rating,[8]; [21],0
same,"Plant response rating, Rice",[9]; [18],0
same,"Plant response rating, Rice",[9]; [19],10
same,"Plant response rating, Rice","[9]; Flood, 31 g ai/ha",0
same,"Plant response rating, Rice","[9]; Flood, 62 g ai/ha",0
same,"Plant response rating, Sedge, Umbrella",[10]; [18],50
same,"Plant response rating, Sedge, Umbrella",[10]; [19],75
same,"Plant response rating, Sedge, Umbrella","[10]; Flood, 31 g ai/ha",0
same,"Plant response rating, Sedge, Umbrella","[10]; Flood, 62 g ai/ha",0
same,"Plant response rating, Ducksalad",[11]; [18],75
same,"Plant response rating, Ducksalad",[11]; [19],75
same,"Plant response rating, Ducksalad","[11]; Flood, 31 g ai/ha",0
same,"Plant response rating, Ducksalad","[11]; Flood, 62 g ai/ha",40
same,"Plant response rating, Barnyardgrass",[12]; [18],0
same,"Plant response rating, Barnyardgrass",[12]; [19],0
same,"Plant response rating, Barnyardgrass","[12]; Flood, 31 g ai/ha",0
same,"Plant response rating, Barnyardgrass","[12]; Flood, 62 g ai/ha",0
FC(F)(F)c1ccc(-n2nc(Br)c(Cc3cccc(C(F)(F)F)c3)n2)nc1 [Compound 105],Barnyardgrass plant response rating,[1]; [20],10
same,Barnyardgrass plant response rating,[1]; [21],10
same,"Crabgrass, Large plant response rating",[2]; [20],50
same,"Crabgrass, Large plant response rating",[2]; [21],50
same,Morningglory plant response rating,[4]; [20],90
same,Morningglory plant response rating,[4]; [21],10
same,Pigweed plant response rating,[5]; [20],100
same,Pigweed plant response rating,[5]; [21],90
same,Velvetleaf plant response rating,[6]; [20],40
same,Velvetleaf plant response rating,[6]; [21],10
same,Wheat plant response rating,[7]; [20],0
same,Wheat plant response rating,[7]; [21],0
same,Corn plant response rating,[8]; [20],10
same,Corn plant response rating,[8]; [21],0
same,"Plant response rating, Rice",[9]; [18],0
same,"Plant response rating, Rice",[9]; [19],0
same,"Plant response rating, Rice","[9]; Flood, 31 g ai/ha",0
same,"Plant response rating, Rice","[9]; Flood, 62 g ai/ha",0
same,"Plant response rating, Sedge, Umbrella",[10]; [18],0
same,"Plant response rating, Sedge, Umbrella",[10]; [19],0
same,"Plant response rating, Sedge, Umbrella","[10]; Flood, 31 g ai/ha",0
same,"Plant response rating, Sedge, Umbrella","[10]; Flood, 62 g ai/ha",0
same,"Plant response rating, Ducksalad",[11]; [18],0
same,"Plant response rating, Ducksalad",[11]; [19],0
same,"Plant response rating, Ducksalad","[11]; Flood, 31 g ai/ha",0
same,"Plant response rating, Ducksalad","[11]; Flood, 62 g ai/ha",0
same,"Plant response rating, Barnyardgrass",[12]; [18],0
same,"Plant response rating, Barnyardgrass",[12]; [19],0
same,"Plant response rating, Barnyardgrass","[12]; Flood, 31 g ai/ha",0
same,"Plant response rating, Barnyardgrass","[12]; Flood, 62 g ai/ha",0
